Results as given in the NIST ThermoML archive (doi:10.1021/acs.jced.8b00487).
“And” between values parts separate entries of the source, which are not always exact repeats. Equal values may be shown once. Numbers after ± are expanded uncertainties.

Settings: 298.15 K, Liquid, Vibrating tube method

CCCCC(CC)COP(=O)(O)OCC(CC)CCCC (configuration not stated) [bis(2-ethylhexyl) hydrogen phosphate]
mass density (101 kPa): 971 ± 2 kg/m3 and 970.5 ± 2 kg/m3 | mass density (101.33 kPa): 969.1 ± 0.6 kg/m3
